Source: PMC10482267, “Safety, tolerability, pharmacokinetics, and pharmacodynamics of single and multiple doses of aficamten in healthy Chinese participants: a randomized, double-blind, placebo-controlled, phase 1 study” (Frontiers in Pharmacology, 2023)

Test system: healthy Chinese participants
Test: Safety assessments (treatment-emergent adverse events)
Type: in vivo, human
Details: for safety and tolerability, in words: single dose of 10 mg or 20 mg and multiple doses of 5 mg, oral
Method: Safety was evaluated based on the occurrence, frequency, and severity of adverse events (AEs). Routine clinical laboratory tests, 12‐lead ECGs, physical examinations, and vital signs (blood pressure, pulse rate, and body temperature) were performed at initial screening, day 1, during the treatment period until discharge or early termination. The AEs were monitored from the initial administration to the last follow-up after the last treatment. The AEs were assessed by the investigators with regard to severity (mild, moderate, severe, and life‐threatening) and the relationship to study treatment (reasonably or possibly related and not reasonably or not possibly related).

CCc1nc(-c2ccc3c(c2)CC[C@H]3NC(=O)c2cnn(C)c2)no1 [aficamten]
TEAE Alanine aminotransferase increased, Number (%) of Subjects (MD 5 mg (N = 9)): 0 Number (%) | TEAE Blood bilirubin increased, Number (%) of Subjects (MD 5 mg (N = 9)): 0 Number (%) | TEAE Blood creatine phosphokinase increased, Events (MD 5 mg (N = 9)): 1 | TEAE Blood creatine phosphokinase increased, Number (%) of Subjects (MD 5 mg (N = 9)): 1(11.1) Number (%) | TEAE Blood creatinine increased, Events (MD 5 mg (N = 9)): 1 | TEAE Blood creatinine increased, Number (%) of Subjects (MD 5 mg (N = 9)): 1(11.1) Number (%) | TEAE Blood sodium decreased, Events (MD 5 mg (N = 9)): 1 | TEAE Blood sodium decreased, Number (%) of Subjects (MD 5 mg (N = 9)): 1(11.1) Number (%) | TEAE Cardiac disorders (SOC), Number (%) of Subjects (MD 5 mg (N = 9)): 0 Number (%) | TEAE Chest discomfort, Number (%) of Subjects (MD 5 mg (N = 9)): 0 Number (%) | TEAE Conjugated bilirubin increased, Events (MD 5 mg (N = 9)): 2 | TEAE Conjugated bilirubin increased, Number (%) of Subjects (MD 5 mg (N = 9)): 2(22.2) Number (%) | TEAE Gamma-glutamyltransferase increased, Number (%) of Subjects (MD 5 mg (N = 9)): 0 Number (%) | TEAE Gastrointestinal disorders (SOC), Number (%) of Subjects (MD 5 mg (N = 9)): 0 Number (%) | TEAE General disorders and administration site conditions (SOC), Number (%) of Subjects (MD 5 mg (N = 9)): 0 Number (%) | TEAE Heart rate decreased, Number (%) of Subjects (MD 5 mg (N = 9)): 0 Number (%) | TEAE Investigations (SOC), Events (MD 5 mg (N = 9)): 13 | TEAE Investigations (SOC), Number (%) of Subjects (MD 5 mg (N = 9)): 6(66.7) Number (%) | TEAE Nausea, Number (%) of Subjects (MD 5 mg (N = 9)): 0 Number (%) | TEAE Neutrophil count decreased, Events (MD 5 mg (N = 9)): 2 | TEAE Neutrophil count decreased, Number (%) of Subjects (MD 5 mg (N = 9)): 1(11.1) Number (%) | TEAE Neutrophil count increased (first line, r9), Events (MD 5 mg (N = 9)): 1 | TEAE Neutrophil count increased (first line, r9), Number (%) of Subjects (MD 5 mg (N = 9)): 1(11.1) Number (%) | TEAE Neutrophil count increased (second line, r18), Events (MD 5 mg (N = 9)): 1 | TEAE Neutrophil count increased (second line, r18), Number (%) of Subjects (MD 5 mg (N = 9)): 1(11.1) Number (%) | TEAE Rash, Events (MD 5 mg (N = 9)): 1 | TEAE Rash, Number (%) of Subjects (MD 5 mg (N = 9)): 1(11.1) Number (%) | TEAE Skin and subcutaneous tissue disorders (SOC), Events (MD 5 mg (N = 9)): 1 | TEAE Skin and subcutaneous tissue disorders (SOC), Number (%) of Subjects (MD 5 mg (N = 9)): 1(11.1) Number (%) | TEAE Systolic blood pressure decreased, Events (MD 5 mg (N = 9)): 3 | TEAE Systolic blood pressure decreased, Number (%) of Subjects (MD 5 mg (N = 9)): 2(22.2) Number (%) | TEAE Ventricular hypokinesia, Number (%) of Subjects (MD 5 mg (N = 9)): 0 Number (%) | TEAE White blood cell count decreased, Number (%) of Subjects (MD 5 mg (N = 9)): 0 Number (%) | TEAE White blood cell count increased, Events (MD 5 mg (N = 9)): 1 | TEAE White blood cell count increased, Number (%) of Subjects (MD 5 mg (N = 9)): 1(11.1) Number (%) | TEAEs, Events (MD 5 mg (N = 9)): 14 | TEAEs, Number (%) of Subjects (MD 5 mg (N = 9)): 6(66.7) Number (%) | TEAE Alanine aminotransferase increased, Number (%) of Subjects (SAD 10 mg (N = 6)): 0 Number (%) | TEAE Blood bilirubin increased, Number (%) of Subjects (SAD 10 mg (N = 6)): 0 Number (%) | TEAE Blood creatine phosphokinase increased, Number (%) of Subjects (SAD 10 mg (N = 6)): 0 Number (%) | TEAE Blood creatinine increased, Number (%) of Subjects (SAD 10 mg (N = 6)): 0 Number (%) | TEAE Blood sodium decreased, Number (%) of Subjects (SAD 10 mg (N = 6)): 0 Number (%) | TEAE Cardiac disorders (SOC), Events (SAD 10 mg (N = 6)): 1 | TEAE Cardiac disorders (SOC), Number (%) of Subjects (SAD 10 mg (N = 6)): 1(16.7) Number (%) | TEAE Chest discomfort, Number (%) of Subjects (SAD 10 mg (N = 6)): 0 Number (%) | TEAE Conjugated bilirubin increased, Number (%) of Subjects (SAD 10 mg (N = 6)): 0 Number (%) | TEAE Gamma-glutamyltransferase increased, Number (%) of Subjects (SAD 10 mg (N = 6)): 0 Number (%) | TEAE Gastrointestinal disorders (SOC), Number (%) of Subjects (SAD 10 mg (N = 6)): 0 Number (%) | TEAE General disorders and administration site conditions (SOC), Number (%) of Subjects (SAD 10 mg (N = 6)): 0 Number (%) | TEAE Heart rate decreased, Number (%) of Subjects (SAD 10 mg (N = 6)): 0 Number (%) | TEAE Investigations (SOC), Events (SAD 10 mg (N = 6)): 2 | TEAE Investigations (SOC), Number (%) of Subjects (SAD 10 mg (N = 6)): 1(16.7) Number (%) | TEAE Nausea, Number (%) of Subjects (SAD 10 mg (N = 6)): 0 Number (%) | TEAE Neutrophil count decreased, Events (SAD 10 mg (N = 6)): 1 | TEAE Neutrophil count decreased, Number (%) of Subjects (SAD 10 mg (N = 6)): 1(16.7) Number (%) | TEAE Neutrophil count increased (first line, r9), Number (%) of Subjects (SAD 10 mg (N = 6)): 0 Number (%) | TEAE Neutrophil count increased (second line, r18), Number (%) of Subjects (SAD 10 mg (N = 6)): 0 Number (%) | TEAE Rash, Number (%) of Subjects (SAD 10 mg (N = 6)): 0 Number (%) | TEAE Skin and subcutaneous tissue disorders (SOC), Number (%) of Subjects (SAD 10 mg (N = 6)): 0 Number (%) | TEAE Systolic blood pressure decreased, Number (%) of Subjects (SAD 10 mg (N = 6)): 0 Number (%) | TEAE Ventricular hypokinesia, Events (SAD 10 mg (N = 6)): 1 | TEAE Ventricular hypokinesia, Number (%) of Subjects (SAD 10 mg (N = 6)): 1(16.7) Number (%) | TEAE White blood cell count decreased, Events (SAD 10 mg (N = 6)): 1 | TEAE White blood cell count decreased, Number (%) of Subjects (SAD 10 mg (N = 6)): 1(16.7) Number (%) | TEAE White blood cell count increased, Number (%) of Subjects (SAD 10 mg (N = 6)): 0 Number (%) | TEAEs, Events (SAD 10 mg (N = 6)): 3 | TEAEs, Number (%) of Subjects (SAD 10 mg (N = 6)): 1(16.7) Number (%) | TEAE Alanine aminotransferase increased, Number (%) of Subjects (SAD 20 mg (N = 6)): 0 Number (%) | TEAE Blood bilirubin increased, Events (SAD 20 mg (N = 6)): 1 | TEAE Blood bilirubin increased, Number (%) of Subjects (SAD 20 mg (N = 6)): 1(16.7) Number (%) | TEAE Blood creatine phosphokinase increased, Number (%) of Subjects (SAD 20 mg (N = 6)): 0 Number (%) | TEAE Blood creatinine increased, Number (%) of Subjects (SAD 20 mg (N = 6)): 0 Number (%) | TEAE Blood sodium decreased, Number (%) of Subjects (SAD 20 mg (N = 6)): 0 Number (%) | TEAE Cardiac disorders (SOC), Number (%) of Subjects (SAD 20 mg (N = 6)): 0 Number (%) | TEAE Chest discomfort, Events (SAD 20 mg (N = 6)): 2 | TEAE Chest discomfort, Number (%) of Subjects (SAD 20 mg (N = 6)): 1(16.7) Number (%) | TEAE Conjugated bilirubin increased, Events (SAD 20 mg (N = 6)): 2 | TEAE Conjugated bilirubin increased, Number (%) of Subjects (SAD 20 mg (N = 6)): 2(33.3) Number (%) | TEAE Gamma-glutamyltransferase increased, Number (%) of Subjects (SAD 20 mg (N = 6)): 0 Number (%) | TEAE Gastrointestinal disorders (SOC), Events (SAD 20 mg (N = 6)): 1 | TEAE Gastrointestinal disorders (SOC), Number (%) of Subjects (SAD 20 mg (N = 6)): 1(16.7) Number (%) | TEAE General disorders and administration site conditions (SOC), Events (SAD 20 mg (N = 6)): 2 | TEAE General disorders and administration site conditions (SOC), Number (%) of Subjects (SAD 20 mg (N = 6)): 1(16.7) Number (%) | TEAE Heart rate decreased, Events (SAD 20 mg (N = 6)): 2 | TEAE Heart rate decreased, Number (%) of Subjects (SAD 20 mg (N = 6)): 1(16.7) Number (%) | TEAE Investigations (SOC), Events (SAD 20 mg (N = 6)): 7 | TEAE Investigations (SOC), Number (%) of Subjects (SAD 20 mg (N = 6)): 4(66.7) Number (%) | TEAE Nausea, Events (SAD 20 mg (N = 6)): 1 | TEAE Nausea, Number (%) of Subjects (SAD 20 mg (N = 6)): 1(16.7) Number (%) | TEAE Neutrophil count decreased, Number (%) of Subjects (SAD 20 mg (N = 6)): 0 Number (%) | TEAE Neutrophil count increased (first line, r9), Number (%) of Subjects (SAD 20 mg (N = 6)): 0 Number (%) | TEAE Neutrophil count increased (second line, r18), Number (%) of Subjects (SAD 20 mg (N = 6)): 0 Number (%) | TEAE Rash, Number (%) of Subjects (SAD 20 mg (N = 6)): 0 Number (%) | TEAE Skin and subcutaneous tissue disorders (SOC), Number (%) of Subjects (SAD 20 mg (N = 6)): 0 Number (%) | TEAE Systolic blood pressure decreased, Events (SAD 20 mg (N = 6)): 2 | TEAE Systolic blood pressure decreased, Number (%) of Subjects (SAD 20 mg (N = 6)): 2(33.3) Number (%) | TEAE Ventricular hypokinesia, Number (%) of Subjects (SAD 20 mg (N = 6)): 0 Number (%) | TEAE White blood cell count decreased, Number (%) of Subjects (SAD 20 mg (N = 6)): 0 Number (%) | TEAE White blood cell count increased, Number (%) of Subjects (SAD 20 mg (N = 6)): 0 Number (%) | TEAEs, Events (SAD 20 mg (N = 6)): 10 | TEAEs, Number (%) of Subjects (SAD 20 mg (N = 6)): 4(66.7) Number (%) | deaths, SAEs, AESIs, discontinuations due to TEAEs, LVEF <50% (all cohorts): no deaths, serious adverse events (SAEs) | severity of TEAEs (all cohorts): mild | safety and tolerability, in words: well-tolerated | safety and tolerability, in words (listed as Aficamten): safe and well-tolerated
